pKi: −log10 of the molar value.

LRRK2, sequence (Q5S007 whole entry): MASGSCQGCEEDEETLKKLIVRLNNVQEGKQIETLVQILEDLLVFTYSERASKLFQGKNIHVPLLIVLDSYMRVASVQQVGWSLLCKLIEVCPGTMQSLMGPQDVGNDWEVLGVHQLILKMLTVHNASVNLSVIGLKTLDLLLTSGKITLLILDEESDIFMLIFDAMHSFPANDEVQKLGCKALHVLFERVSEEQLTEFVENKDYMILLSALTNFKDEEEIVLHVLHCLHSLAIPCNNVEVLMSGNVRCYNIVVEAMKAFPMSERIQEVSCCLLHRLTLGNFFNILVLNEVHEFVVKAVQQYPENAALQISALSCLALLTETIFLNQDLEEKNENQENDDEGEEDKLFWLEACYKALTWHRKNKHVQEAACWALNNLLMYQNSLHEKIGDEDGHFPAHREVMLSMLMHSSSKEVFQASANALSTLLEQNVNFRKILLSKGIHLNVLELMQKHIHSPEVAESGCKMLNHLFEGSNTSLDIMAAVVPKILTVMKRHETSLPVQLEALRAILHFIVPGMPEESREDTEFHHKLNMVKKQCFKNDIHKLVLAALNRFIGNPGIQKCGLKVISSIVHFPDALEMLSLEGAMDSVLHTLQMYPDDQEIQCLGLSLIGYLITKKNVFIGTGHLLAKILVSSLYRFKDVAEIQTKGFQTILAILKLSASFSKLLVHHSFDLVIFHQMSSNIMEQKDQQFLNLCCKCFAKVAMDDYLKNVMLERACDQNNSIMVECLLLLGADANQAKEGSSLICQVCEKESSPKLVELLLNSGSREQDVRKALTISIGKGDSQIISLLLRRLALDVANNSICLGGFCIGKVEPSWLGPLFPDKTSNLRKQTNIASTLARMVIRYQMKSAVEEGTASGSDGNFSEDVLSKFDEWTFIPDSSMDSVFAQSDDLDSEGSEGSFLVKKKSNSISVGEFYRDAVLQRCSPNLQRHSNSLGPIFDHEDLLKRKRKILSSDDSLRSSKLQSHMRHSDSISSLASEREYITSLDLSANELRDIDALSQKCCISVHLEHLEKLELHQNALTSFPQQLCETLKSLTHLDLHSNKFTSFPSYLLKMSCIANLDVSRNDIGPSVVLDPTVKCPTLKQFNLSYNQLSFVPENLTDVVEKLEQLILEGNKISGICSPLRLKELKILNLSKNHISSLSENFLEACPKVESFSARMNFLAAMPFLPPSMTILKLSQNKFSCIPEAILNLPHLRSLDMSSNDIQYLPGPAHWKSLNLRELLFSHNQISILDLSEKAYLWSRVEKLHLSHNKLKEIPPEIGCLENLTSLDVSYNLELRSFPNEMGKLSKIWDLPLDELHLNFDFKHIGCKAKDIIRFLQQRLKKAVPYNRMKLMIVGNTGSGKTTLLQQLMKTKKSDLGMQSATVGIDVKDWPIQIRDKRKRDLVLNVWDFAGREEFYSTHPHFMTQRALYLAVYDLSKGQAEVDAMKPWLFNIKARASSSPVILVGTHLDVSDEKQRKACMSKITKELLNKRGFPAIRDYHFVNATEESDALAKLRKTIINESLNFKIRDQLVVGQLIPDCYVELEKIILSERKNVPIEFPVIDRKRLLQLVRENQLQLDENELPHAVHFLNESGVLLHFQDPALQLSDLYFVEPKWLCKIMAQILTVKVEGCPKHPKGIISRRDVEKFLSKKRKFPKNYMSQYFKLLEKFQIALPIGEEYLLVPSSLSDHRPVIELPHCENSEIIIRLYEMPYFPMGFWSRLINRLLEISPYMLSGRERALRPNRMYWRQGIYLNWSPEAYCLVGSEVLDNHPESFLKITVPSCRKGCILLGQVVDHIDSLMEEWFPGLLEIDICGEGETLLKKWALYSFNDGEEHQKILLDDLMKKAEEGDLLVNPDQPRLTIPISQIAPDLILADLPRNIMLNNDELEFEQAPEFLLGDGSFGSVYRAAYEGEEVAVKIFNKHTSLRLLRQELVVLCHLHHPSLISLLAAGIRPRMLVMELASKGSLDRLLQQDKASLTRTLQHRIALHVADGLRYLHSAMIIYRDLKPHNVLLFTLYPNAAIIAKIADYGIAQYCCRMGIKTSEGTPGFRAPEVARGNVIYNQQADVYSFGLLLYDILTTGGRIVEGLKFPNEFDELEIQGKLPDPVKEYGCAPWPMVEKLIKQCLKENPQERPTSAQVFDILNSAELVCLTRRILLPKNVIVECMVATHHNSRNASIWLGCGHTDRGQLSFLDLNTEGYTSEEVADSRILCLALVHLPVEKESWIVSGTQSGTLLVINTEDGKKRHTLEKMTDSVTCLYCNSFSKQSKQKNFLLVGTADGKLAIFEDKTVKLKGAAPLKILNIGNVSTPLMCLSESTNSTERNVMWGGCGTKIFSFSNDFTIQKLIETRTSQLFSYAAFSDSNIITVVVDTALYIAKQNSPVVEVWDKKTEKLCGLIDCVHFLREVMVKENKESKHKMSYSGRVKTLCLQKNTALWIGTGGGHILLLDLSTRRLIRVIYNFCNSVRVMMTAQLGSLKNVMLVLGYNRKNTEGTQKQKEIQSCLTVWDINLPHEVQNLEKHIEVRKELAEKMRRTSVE

The experiment concerns the target LRRK2 (Homo sapiens, UniProt Q5S007). Briefly: LRRK2 affinity (Ki). Format: binding. The settings on record: LRRK2 affinity (micromolar), Table 1.
One may read the pKi as the negative decadic logarithm of the Ki, by convention in mol/L. Read a high pKi as a low Ki. Compound `O=C(c1cc(OCCF)c(Nc2ncc(C(F)(F)F)c(NC3CC3)n2)cc1F)N1CCOCC1` [Compound 1, (4-(4-(cyclopropylamino)-5-(trifluoromethyl)pyrimidin-2-ylamino)-2-fluoro-5-(2-fluoroethoxy)phenyl)(morpholino) methanone] had a pKi of 9.22.
In turn, `CNc1nc(Nc2cc(C)c(C(=O)N3CCOCC3)cc2OCF)ncc1C(F)(F)F` [Compound 2, (5-(fluoromethoxy)-2-methyl-4-(4-(methylamino)-5-(trifluoromethyl)pyrimidin-2-ylamino)phenyl)(morpholino) methanone] gave a negative logarithm of the Ki (pKi) of 9.00.
`CCNc1nc(Nc2cc(OCF)c(C(=O)N3CCCC3)cc2Cl)ncc1C(F)(F)F` [Compound 5, (5-chloro-4-(4-(ethylamino)-5-(trifluoromethyl)pyrimidin-2-ylamino)-2-(fluoromethoxy)phenyl)(pyrrolidin-1-yl)methanone]: the pKi was 8.82.
In the case of `CCNc1nc(Nc2cc(OC)c(C(=O)N3CCC(F)(F)C3)cc2OCF)ncc1C(F)(F)F` [Compound 6, (3,3-difluoropyrrolidin-1-yl)(4-(4-(ethylamino)-5-(trifluoromethyl)pyrimidin-2-ylamino)-5-(fluoromethoxy)-2-methoxyphenyl)methanone], the negative-log Ki (pKi) was 9.40.
With `CNc1nc(Nc2cc(C)c(C(=O)N3CCCC3)cc2OCF)ncc1C(F)(F)F` [Compound 7, (5-(fluoromethoxy)-2-methyl-4-(4-(methylamino)-5-(trifluoromethyl)pyrimidin-2-ylamino)phenyl)(pyrrolidin-1-yl)methanone], the negative logarithm of the Ki (pKi) was 9.15.
On to `CCNc1nc(Nc2cc(OC)c(C(=O)N3CCC(F)(F)C3)cc2OC)ncc1C(F)(F)F` [Compound 8, (3,3-difluoropyrrolidin-1-yl)(4-(4-(ethylamino)-5-(trifluoromethyl)pyrimidin-2-ylamino)-2,5-dimethoxyphenyl)methanone], for which the negative-log Ki (pKi) was 8.96.
`CNc1nc(Nc2cc(OC)c(C(=O)N3CCC(F)(F)C3)cc2OCCF)ncc1C(F)(F)F` [Compound 9, (3,3-difluoropyrrolidin-1-yl)(5-(2-fluoroethoxy)-2-methoxy-4-((4-(methylamino)-5-(trifluoromethyl)pyrimidin-2-yl)amino)phenyl)methanone] had a pKi of 8.82.
Take `CCNc1nc(Nc2cc(F)c(CN3CCOCC3)cc2OCCF)ncc1C(F)(F)F` [Compound 10, N4-ethyl-N2-(5-fluoro-2-(2-fluoroethoxy)-4-(morpholinomethyl)phenyl)-5-(trifluoromethyl)pyrimidine-2,4-diamine]: the negative-log Ki (pKi) is 8.82.
As for `CNc1nc(Nc2cc(OC)c(C(=O)N3CCCCC3)cc2OCF)ncc1C(F)(F)F` [Compound 11, (5-(fluoromethoxy)-2-methoxy-4-(4-(methylamino)-5-(trifluoromethyl)pyrimidin-2-ylamino)phenyl)(piperidin-1-yl)methanone], the negative logarithm of the Ki (pKi) is 8.80. This pKi and that of the compound before are within 0.2 log units of each other.
On to `CCNc1nc(Nc2cc(F)c(C(=O)N3CCOCC3)cc2OCCF)ncc1C(F)(F)F` [Compound 12, (4-(4-(ethylamino)-5-(trifluoromethyl)pyrimidin-2-ylamino)-2-fluoro-5-(2-fluoroethoxy)phenyl)(morpholino) methanone], for which the negative logarithm of the Ki (pKi) was 8.70.
In turn, `CNc1nc(Nc2cc(C)c(C(=O)N3CCOCC3)cc2OCCF)ncc1C(F)(F)F` [Compound 13, (5-(2-fluoroethoxy)-2-methyl-4-(4-(methylamino)-5-(trifluoromethyl)pyrimidin-2-ylamino)phenyl)(morpholino) methanone] gave a pKi of 8.64.
For the compound `CNc1nc(Nc2cc(OC)c(C(=O)N3CCCC3)cc2OCF)ncc1C(F)(F)F` [Compound 14, (5-(fluoromethoxy)-2-methoxy-4-(4-(methylamino)-5-(trifluoromethyl)pyrimidin-2-ylamino)phenyl)(pyrrolidin-1-yl)methanone], the pKi was 8.49.
As for `CNc1nc(Nc2ccc(S(C)(=O)=O)cc2OCCF)ncc1C(F)(F)F` [Compound 15, N2-(2-(2-fluoroethoxy)-4-(methylsulfonyl)phenyl)-N4-methyl-5-(trifluoromethyl)pyrimidine-2,4-diamine], the negative-log Ki (pKi) was 8.48.
In turn, `CCNc1nc(Nc2cc(OCF)c(C(=O)N3CCCC3)cc2F)ncc1C(F)(F)F` [Compound 16, (4-(4-(ethylamino)-5-(trifluoromethyl)pyrimidin-2-ylamino)-5-fluoro-2-(fluoromethoxy)phenyl)(pyrrolidin-1-yl)methanone] had a negative-log Ki (pKi) of 8.47.
Compound `CNc1nc(Nc2cc(F)c(C(=O)N3CCOCC3)cc2OCCF)ncc1C(F)(F)F` [Compound 17, (2-fluoro-5-(2-fluoroethoxy)-4-(4-(methylamino)-5-(trifluoromethyl)pyrimidin-2-ylamino)phenyl)(morpholino) methanone] gave a pKi of 8.46.
`CNc1nc(Nc2cc(F)c(CN3CCOCC3)cc2OCCF)ncc1C(F)(F)F` [Compound 18, N2-(5-fluoro-2-(2-fluoroethoxy)-4-(morpholinomethyl)phenyl)-N4-methyl-5-(trifluoromethyl)pyrimidine-2,4-diamine] had a pKi of 8.43.
Take `CNc1nc(Nc2cc(OC)c(C(=O)N(C)C)cc2OCF)ncc1C(F)(F)F` [Compound 19, 5-(fluoromethoxy)-2-methoxy-N,N-dimethyl-4-(4-(methylamino)-5-(trifluoromethyl)pyrimidin-2-ylamino)benzamide]: the pKi is 8.40.
Then `CNc1nc(Nc2cc(OC)c(C(=O)N3CCCC3)cc2OCCF)ncc1C(F)(F)F` [Compound 20, (5-(2-fluoroethoxy)-2-methoxy-4-(4-(methylamino)-5-(trifluoromethyl)pyrimidin-2-ylamino)phenyl)(pyrrolidin-1-yl)methanone], with 8.33; and `CNc1nc(Nc2ccc(CN3CCOCC3)cc2OCCF)ncc1C(F)(F)F` [Compound 21, N2-(2-(2-fluoroethoxy)-4-(morpholinomethyl)phenyl)-N4-methyl-5-(trifluoromethyl)pyrimidine-2,4-diamine], with 8.18; and `CNc1nc(Nc2cc(F)c(C(=O)N3CCCC3)cc2OCF)ncc1C(F)(F)F` [Compound 22, (2-fluoro-5-(fluoromethoxy)-4-(4-(methylamino)-5-(trifluoromethyl)pyrimidin-2-ylamino)phenyl)(pyrrolidin-1-yl)methanone], with 8.19.
In turn, `COc1nc(Nc2cc(C)c(C(=O)N3CCCC3)cc2OCF)ncc1Cl` [Compound 24, (4-(5-chloro-4-methoxypyrimidin-2-ylamino)-5-(fluoromethoxy)-2-methylphenyl)(pyrrolidin-1-yl)methanone] gave a negative-log Ki (pKi) of 7.96.
Compound `COc1nc(Nc2ccc(CN3CCOCC3)cc2OCCF)ncc1Cl` [Compound 25, 5-chloro-N-(2-(2-fluoroethoxy)-4-(morpholinomethyl)phenyl)-4-methoxypyrimidin-2-amine] showed a negative logarithm of the Ki (pKi) of 7.92.
`COc1nc(Nc2ccc(S(C)(=O)=O)cc2OCCF)ncc1Cl` [Compound 26, 5-chloro-N-(2-(2-fluoroethoxy)-4-(methylsulfonyl)phenyl)-4-methoxypyrimidin-2-amine] had a pKi of 7.92.
Compound `CNc1nc(Nc2ccc(S(C)(=O)=O)cc2OCCF)ncc1Cl` [Compound 27, 5-chloro-N2-(2-(2-fluoroethoxy)-4-(methylsulfonyl)phenyl)-N4-methylpyrimidine-2,4-diamine] had a pKi of 7.92.
With `COc1nc(Nc2ccc(C(=O)N3CCOCC3)cc2OCCF)ncc1Cl` [Compound 28, (4-(5-chloro-4-methoxypyrimidin-2-ylamino)-3-(2-fluoroethoxy)phenyl)(morpholino) methanone], the negative logarithm of the Ki (pKi) is 7.82.
Consider `CNc1nc(Nc2cnc(N3CCOCC3)cc2OCCF)ncc1C(F)(F)F` [Compound 29, N2-(4-(2-fluoroethoxy)-6-morpholinopyridin-3-yl)-N4-methyl-5-(trifluoromethyl)pyrimidine-2,4-diamine], for which the pKi is 7.68.
Consider `CNc1nc(Nc2ccc(C(=O)N3CCOCC3)cc2OCCF)ncc1C(F)(F)F` [Compound 30, (3-(2-fluoroethoxy)-4-(4-(methylamino)-5-(trifluoromethyl)pyrimidin-2-ylamino)phenyl)(morpholino) methanone], for which the negative logarithm of the Ki (pKi) is 8.64. Against the preceding compound, the pKi is 0.96 log units higher.
In the case of `CNc1nc(Nc2cnn(C3CCN(CCF)CC3)c2C)ncc1C(F)(F)F` [Compound 31, N2-(1-(1-(2-fluoroethyl)piperidin-4-yl)-5-methyl-1H-pyrazol-4-yl)-N4-methyl-5-(trifluoromethyl)pyrimidine-2,4-diamine], the negative logarithm of the Ki (pKi) is 8.38.
Then `COc1nc(Nc2cnn(C3CCN(CCF)CC3)c2C)ncc1Cl` [Compound 32, 5-chloro-N-(1-(1-(2-fluoroethyl)piperidin-4-yl)-5-methyl-1H-pyrazol-4-yl)-4-methoxypyrimidin-2-amine], with 7.68; and `CNc1nc(Nc2cn(C3CCN(CCF)CC3)nc2C)ncc1C(F)(F)F` [Compound 33, N2-(1-(1-(2-fluoroethyl)piperidin-4-yl)-3-methyl-1H-pyrazol-4-yl)-N4-methyl-5-(trifluoromethyl)pyrimidine-2,4-diamine], with 7.60.
`CNc1nc(Nc2cnn(C)c2CF)ncc1C(F)(F)F` [Compound 34, N2-(5-(fluoromethyl)-1-methyl-1H-pyrazol-4-yl)-N4-methyl-5-(trifluoromethyl)pyrimidine-2,4-diamine] showed a negative logarithm of the Ki (pKi) of 7.62.
For the compound `CNc1nc(Nc2cn(CCF)nc2C)ncc1C(F)(F)F` [Compound 35, N2-(1-(2-fluoroethyl)-3-methyl-1H-pyrazol-4-yl)-N4-methyl-5-(trifluoromethyl)pyrimidine-2,4-diamine], the pKi is 8.96.
In turn, `CNc1nc(Nc2cnn(CCF)c2C)ncc1C(F)(F)F` [Compound 36, N2-(1-(2-fluoroethyl)-5-methyl-1H-pyrazol-4-yl)-N4-methyl-5-(trifluoromethyl)pyrimidine-2,4-diamine] had a pKi of 8.74. This pKi is 0.22 log units lower than that of the compound before.
`CNc1nc(Nc2ccc(C(=O)N3CCOCC3)cc2OC)ncc1C(F)(F)F` [Compound 38, (3-methoxy-4-(4-(methylamino)-5-(trifluoromethyl)pyrimidin-2-ylamino)phenyl)(morpholino) methanone] had a negative-log Ki (pKi) of 8.57. This pKi and that of the compound before are within 0.2 log units of each other.
With `COc1nc(Nc2ccc(C(=O)N3CCOCC3)cc2OCCF)ncc1Cl` [Compound 40, (4-((5-chloro-4-methoxypyrimidin-2-yl)amino)-3-(2-fluoroethoxy)phenyl)(morpholino) methanone], the negative-log Ki (pKi) was 7.85.

(Values after US9139566B2, “Fluorine-18 and carbon-11 labeled radioligands for positron emission tomography (PET) imaging for LRRK2” (Genentech, Inc., priority 2011, dated 2015).)
